Measurements as given in publication PMC5913239, “Targeting GLP-1 receptor trafficking to improve agonist efficacy” (Nature Communications, 2018).

Assays:
GLP-1R [1] = target: T1, GLP-1R (Homo sapiens, UniProt P43220); assay: β-arrestin-2 recruitment, PathHunter CHO-GLP-1R cells; format: cell-based; design: host or cells: PathHunter CHO-K1 reporter cells (purchased cell lines); conditions: ± 3 μM BETP, n=3
Description: A full GLP-1 dose response was included to establish the assay Emax.

SNAP-GLP-1R [2] = target: T2, SNAP-GLP-1R (Homo sapiens, UniProt P43220); assay: Competitive association kinetics (TR-FRET, competition with exendin-4-FITC), CHO-SNAP-GLP-1R cells; format: binding
Protocol: Association and dissociation rate constants were calculated using the kinetics of competitive binding algorithm in GraphPad Prism[43].

GLP-1R [3] = target: T1, GLP-1R; assay: cAMP accumulation (HTRF) in PathHunter CHO-GLP-1R cells; format: cell-based; design: host or cells: PathHunter CHO-K1 reporter cells (purchased cell lines); conditions: ± 3 μM BETP, n=3
Protocol: Cyclic AMP accumulation was determined by HTRF (cAMP Dynamic 2, Cisbio). CHO-SNAP-GLP-1R were stimulated at 37 °C in serum-free DMEM. For dose responses, a full GLP-1 curve was included to establish the assay Emax with curve fitting to a four-parameter fit.

INS-1 832/3 cells = assay: Insulin secretion in INS-1 832/3 beta cells; format: cell-based, rat; conditions: INS-1 832/3, 16 h
Protocol: Cells were pre-incubated overnight in 3 mM glucose medium.
For human islets, acute incubations were performed in KHB buffer at the indicated concentration of glucose ± agonist[28]. Overnight incubations were performed in complete RPMI plus 11 mM glucose ± 100 nM agonist. Samples were obtained for secreted and, where indicated, total insulin, and analyzed by HTRF (Cisbio). Percentage of release was calculated, and agonist-stimulated results expressed relative to 11 mM glucose alone as insulin stimulation index.

SNAP-GLP-1R [4] = target: T2, SNAP-GLP-1R; assay: GLP-1R recycling, plate reader surface labeling, CHO-SNAP-GLP-1R cells; format: cell-based
Protocol: (§1) GLP-1R internalization and recycling in CHO-SNAP-GLP-1R cells was measured by surface labeling with anti-GLP-1R antibody or the SNAP-tag probe Lumi4-Tb (Cisbio). […] Residual surface expression was determined from peptide- vs. control-treated wells.

GLP-1R [5] = target: T1, GLP-1R; assay: Agonist-induced GLP-1R internalization (cell surface receptor loss), post-stimulation Lumi4-Tb surface labeling, CHO-SNAP-GLP-1R cells; format: cell-based; conditions: ± 3 μM BETP, 30 min, 100 nM exendin-4, n=4
Protocol: as §1

T1 sequence (P43220 24-463): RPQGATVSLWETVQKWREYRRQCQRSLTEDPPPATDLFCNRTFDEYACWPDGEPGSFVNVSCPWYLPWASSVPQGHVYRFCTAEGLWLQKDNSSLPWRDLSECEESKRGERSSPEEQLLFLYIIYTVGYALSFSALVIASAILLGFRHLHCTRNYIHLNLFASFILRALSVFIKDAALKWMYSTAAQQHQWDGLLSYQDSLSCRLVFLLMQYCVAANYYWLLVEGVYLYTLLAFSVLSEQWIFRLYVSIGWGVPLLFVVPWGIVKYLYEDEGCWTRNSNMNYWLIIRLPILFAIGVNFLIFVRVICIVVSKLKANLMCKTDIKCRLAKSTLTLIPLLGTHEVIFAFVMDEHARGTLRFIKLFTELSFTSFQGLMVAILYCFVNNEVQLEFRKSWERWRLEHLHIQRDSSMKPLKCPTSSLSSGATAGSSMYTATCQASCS
T2 sequence (P43220 24-463): as above

Compound	effect on exendin-4 β-arrestin-2 recruitment response (GLP-1R [1])	effect on exendin-4 association rate (SNAP-GLP-1R [2]; ± 10 μM BETP, n=4)	effect on exendin-4 residence time (SNAP-GLP-1R [2]; ± 10 μM BETP, n=4)	effect on exendin-4 cAMP response (GLP-1R [3])	effect on exendin-4-induced prolonged insulin secretion (INS-1 832/3 cells; ± 3 µM BETP, n=5)	effect on GLP-1R recycling after exendin-4 exposure (SNAP-GLP-1R [4]; ± 3 μM BETP, 60 min recycling, 100 nM exendin-4, n=4)	effect on exendin-4-induced internalization (GLP-1R [5])	agonist residence time (comparison in words) (SNAP-GLP-1R [2]; CHO-SNAP-GLP-1R, normalized to exendin-4-FITC response per assay, n=5)	prolonged insulin secretion, comparison with licensed GLP-1R agonists (INS-1 832/3 cells; 100 nM, tested in parallel, n=6)	GLP-1R recycling (comparison in words) (SNAP-GLP-1R [4]; 100 nM, 60 min, with 10 μM exendin(9-39), n=5)
CC[S+]([O-])c1nc(-c2cccc(OCc3ccccc3)c2)cc(C(F)(F)F)n1 (stereo not shown) [BETP, 4-(3-(benzyloxy)phenyl)-2-(ethylsulfinyl)-6-(trifluoro-methyl)pyrimidine]	did not affect	without changes	increased	did not affect	reduced	slowed	minimal effect			
Dulaglutide								shorter than other compounds	closest to ex-phe1	modestly increased recycling
